# Results published in article PMC10820070, “Hydroxylated Tetramethoxyflavone Affects Intestinal Cell Permeability and Inhibits Cytochrome P450 Enzymes” (Molecules, 2024).
# Several values for one entry are separate records, joined by “and”; a condition that tells them apart may be missing. Identical values can stand only once. Marks after values point to notes of the source that are not given here.
# How the values were obtained:
# CYP3A4 = CYP3A4 (Homo sapiens, UniProt P08684); experiment: CYP inhibition assay (P450 Baculosomes/Vivid substrate, fluorescence), 10-dose IC50
# CYP2C9 = CYP2C9 (Homo sapiens, UniProt P11712); experiment: as above
# CYP2C19 = biological target: T1, CYP2C19 (Homo sapiens, UniProt P33261); experiment: as above; format: biochemical; details: mean ± S.D.; ND: Not Detected
# T1 construct: purchased Invitrogen Corp. (Madison, WI, USA); host or cells: insect cells (baculovirus)
# CYP2D6 = biological target: T2, CYP2D6 (Homo sapiens, UniProt P10635); experiment: as above; format: biochemical; details: mean ± S.D.; ND: Not Detected
# T2 construct: purchased Invitrogen Corp. (Madison, WI, USA); host or cells: insect cells (baculovirus)
# [1] = Transport of TMFs across Caco-2 cell monolayer, apical to basolateral; format: in vitro ADME, human; details: human, Caco-2, calculated over four hours, read-out: apparent permeability coefficient (Papp)
# Method: (§1) Caco-2 cells were cultured in Dulbecco’s modified Eagle’s medium (DMEM; GIBCO, Carlsbad, CA, USA) supplemented with 10% fetal bovine serum (GIBCO), 1% nonessential amino acid solution, and antibiotics (100 U/mL penicillin and 100 µg/mL streptomycin from GIBCO) with a minor modification according to Lu. Cells were grown in an incubator with 5% CO2 and 95% humidity at 37 °C, with medium replaced every 2–3 days. The tests were carried out using cells from passages 25–35. Transwell inserts with a polycarbonate membrane (diameter 1.2 cm, pore size 0.4 μm; Corning Costar Co., Corning, NY, USA) were used in 12-well plates. Caco-2 cells were planted at 5 × 10^5 cells/cm^2 on the membrane inserts, and 0.5 and 1.5 mL of culture media were placed on the apical and basolateral sides, respectively. The medium was changed three times a week, and the Caco-2 cells used in the studies had been cultured in the Transwells for approximately 21 days. The integrity of the cell layer was assessed using Millicell ERS equipment by measuring transepithelial electrical resistance (TEER) values (Millipore Co., Bedford, MA, USA). Monolayers with TEER values greater than 400 Ωcm^2 were used for transport and absorption studies.
# (§2) Transport experiments were conducted using modified methodologies from the literature. Before adding the test solution, the apical and basolateral sides of the Coco-2 cell monolayer grown in Transwell inserts were washed three times with Hank’s balanced salt solution (GIBCO). The apical-to-basolateral permeability was measured by adding 0.5 mL of the test solution containing 300 μg/mL TMFs and 1.5 mL of HBSS to the apical and basolateral sides, respectively, and incubating at 37 °C for 0.5, 1, 2, and 4 h. The concentration of TMF utilized was determined using the Caco-2 cell viability test findings. TMF was dissolved and diluted with HBSS before the experiment began. The apical and basolateral solutions were collected after incubation for 0.5, 1, 2, and 4 h, and the concentration of TMF was determined using LC-MS. The apparent permeability coefficient (Papp in cm/s) was calculated over a four-hour duration using Equation (1):Papp = (V/AC0) × (dC/dt)(1) where V is the volume of solution on the basolateral side (1.5 mL); A is the membrane surface area (1.12 cm^2); C0 is the initial concentration on the apical side; and dC/dt is the change in concentration in the basolateral side over time.
# (§3) The transport efficiency (%) was calculated using Equation (2):Transport efficiency (%) = (Cbs)/(Cas) × 100 (%)(2) where Cbs is the concentration of TMF transported in the basolateral side; and Cas is the initial concentration of TMF added to the apical side.
# Caco-2 cell monolayer = experiment: as above; format: in vitro ADME, human; details: 300 μg/mL TMF loaded on apical side, mean ± S.D
# Method: as §1, §2, §3
# CYP1A2 = biological target: T3, CYP1A2 (Homo sapiens, UniProt P05177); experiment: CYP inhibition assay (P450 Baculosomes/Vivid substrate, fluorescence), 10-dose IC50
# T3 sequence (P05177 2-516 limits assumed): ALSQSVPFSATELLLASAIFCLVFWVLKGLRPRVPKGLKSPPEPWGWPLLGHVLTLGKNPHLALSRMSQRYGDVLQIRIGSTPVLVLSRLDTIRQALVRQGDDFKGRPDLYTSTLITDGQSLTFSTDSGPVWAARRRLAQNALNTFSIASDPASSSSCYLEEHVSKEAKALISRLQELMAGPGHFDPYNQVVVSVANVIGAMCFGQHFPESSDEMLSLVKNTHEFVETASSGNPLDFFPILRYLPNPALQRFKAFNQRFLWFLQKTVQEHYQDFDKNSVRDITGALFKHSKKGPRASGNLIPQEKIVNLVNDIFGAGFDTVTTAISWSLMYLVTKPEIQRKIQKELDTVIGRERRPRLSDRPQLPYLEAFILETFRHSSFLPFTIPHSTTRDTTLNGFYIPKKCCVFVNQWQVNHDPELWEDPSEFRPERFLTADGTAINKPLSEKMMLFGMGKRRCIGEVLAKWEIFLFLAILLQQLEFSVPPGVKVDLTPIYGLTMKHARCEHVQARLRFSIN
# [2] = tested on: cytochrome P450s (CYP) 1A2; design: method as in PMID 22056445; details: in vitro; read-out: IC50 against CYP1A2; cited from earlier work
# [3] = tested on: cytochrome P450s (CYP) 3A4; design: method as in PMID 22056445; details: in vitro; read-out: IC50 against CYP3A4; cited from earlier work
# [4] = tested on: CYP1A2, CYP2C9, CYP2C19 (range over the three); experiment: CYP inhibition assay, summary over the enzyme panel; format: biochemical; details: human, probe Vivid substrates; range over CYP1A2, 2C9 and 2C19; dose-dependent
# Sequence of CYP3A4 (P08684 2-503 limits assumed): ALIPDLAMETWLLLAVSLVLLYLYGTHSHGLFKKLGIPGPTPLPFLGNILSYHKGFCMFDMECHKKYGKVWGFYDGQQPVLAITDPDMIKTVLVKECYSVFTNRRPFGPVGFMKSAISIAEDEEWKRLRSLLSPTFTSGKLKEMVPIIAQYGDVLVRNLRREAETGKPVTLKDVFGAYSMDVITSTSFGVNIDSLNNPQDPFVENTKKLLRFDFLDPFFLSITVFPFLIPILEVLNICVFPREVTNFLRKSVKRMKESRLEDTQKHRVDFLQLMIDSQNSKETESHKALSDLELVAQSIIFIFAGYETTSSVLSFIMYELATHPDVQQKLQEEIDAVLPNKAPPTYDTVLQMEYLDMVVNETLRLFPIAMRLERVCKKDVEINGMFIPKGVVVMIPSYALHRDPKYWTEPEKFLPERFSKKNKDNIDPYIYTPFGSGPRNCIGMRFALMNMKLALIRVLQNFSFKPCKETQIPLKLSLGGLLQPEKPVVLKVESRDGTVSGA
# Sequence of CYP2C9 (P11712 whole entry): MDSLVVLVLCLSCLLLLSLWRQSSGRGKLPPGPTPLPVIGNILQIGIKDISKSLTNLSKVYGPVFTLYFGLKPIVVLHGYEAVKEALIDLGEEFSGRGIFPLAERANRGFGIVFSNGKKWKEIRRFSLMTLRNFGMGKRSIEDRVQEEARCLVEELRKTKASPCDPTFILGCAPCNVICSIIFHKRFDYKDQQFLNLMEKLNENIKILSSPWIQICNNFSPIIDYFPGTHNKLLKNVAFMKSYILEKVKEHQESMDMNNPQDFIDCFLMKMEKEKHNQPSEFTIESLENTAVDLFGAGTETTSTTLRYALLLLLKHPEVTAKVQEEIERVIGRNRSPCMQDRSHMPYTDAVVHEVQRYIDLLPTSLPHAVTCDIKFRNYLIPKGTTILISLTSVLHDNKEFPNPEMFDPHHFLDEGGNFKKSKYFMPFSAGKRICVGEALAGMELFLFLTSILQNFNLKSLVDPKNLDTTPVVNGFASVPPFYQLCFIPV
# T1 sequence (P33261 whole entry): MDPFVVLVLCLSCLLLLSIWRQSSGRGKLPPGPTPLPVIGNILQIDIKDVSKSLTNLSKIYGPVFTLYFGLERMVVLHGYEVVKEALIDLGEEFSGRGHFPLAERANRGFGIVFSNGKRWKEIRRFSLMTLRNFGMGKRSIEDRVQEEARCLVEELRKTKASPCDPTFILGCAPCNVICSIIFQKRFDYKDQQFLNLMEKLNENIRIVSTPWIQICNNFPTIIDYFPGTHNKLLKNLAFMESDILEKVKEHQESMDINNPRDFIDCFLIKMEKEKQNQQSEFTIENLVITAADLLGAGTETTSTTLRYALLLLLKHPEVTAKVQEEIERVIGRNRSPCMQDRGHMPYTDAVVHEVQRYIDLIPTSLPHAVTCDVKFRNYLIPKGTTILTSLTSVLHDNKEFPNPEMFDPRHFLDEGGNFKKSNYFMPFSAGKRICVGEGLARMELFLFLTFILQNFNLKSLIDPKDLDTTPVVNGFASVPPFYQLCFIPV
# T2 sequence (P10635 whole entry): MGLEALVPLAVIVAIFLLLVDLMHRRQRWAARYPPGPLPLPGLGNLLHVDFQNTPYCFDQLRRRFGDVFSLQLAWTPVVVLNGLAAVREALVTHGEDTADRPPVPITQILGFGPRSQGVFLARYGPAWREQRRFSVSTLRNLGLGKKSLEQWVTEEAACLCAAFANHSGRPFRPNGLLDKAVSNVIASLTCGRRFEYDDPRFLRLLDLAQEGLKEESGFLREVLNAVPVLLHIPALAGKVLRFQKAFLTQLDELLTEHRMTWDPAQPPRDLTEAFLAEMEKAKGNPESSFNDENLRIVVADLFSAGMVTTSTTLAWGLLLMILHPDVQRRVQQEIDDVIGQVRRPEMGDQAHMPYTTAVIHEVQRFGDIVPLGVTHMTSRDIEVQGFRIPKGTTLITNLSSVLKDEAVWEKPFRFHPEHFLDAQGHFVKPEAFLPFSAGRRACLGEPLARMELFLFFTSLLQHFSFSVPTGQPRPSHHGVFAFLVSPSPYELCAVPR
IC50 (CYP3A4),IC50 (CYP2C9),IC50 (CYP2C19),IC50 (CYP2D6),"Papp at 4 h, 300 μg/mL [1]",Transport Efficiency (%) (Caco-2 cell monolayer; 1 h),Transport Efficiency (%) (Caco-2 cell monolayer; 2 h),Transport Efficiency (%) (Caco-2 cell monolayer; 4 h),IC50 (CYP1A2),IC50 at 25 min [4],Compound,IC50 [2],IC50 [3]
150 ± 70 nM,18.3 ± 8.93 µM,14.8 ± 3.15 µM,2.28 ± 0.46 µM,19.5 ×10⁻⁶ cm/s,37.82 ± 0.07 ^c %,41.96 ± 1.14 ^b %,46% and 46.29 ± 2.16 ^a %,15.5 ± 1.95 µM,–,"COc1ccc2c(=O)c(O)c(-c3cc(OC)c(OC)cc3OC)oc2c1 [3H7-TMF, 3-hydroxy-2′,4′,5′,7-tetramethoxyflavone]",–,–
–,–,–,–,–,–,–,–,–,–,"COc1cc(-c2cc(=O)c3c(O)c(OC)c(OC)c(OC)c3o2)ccc1O [8-methoxycirsilineol, 4′,5-dihydroxy-3′,6,7,8-tetramethoxy flavone]",2410 nM,1710 nM
3560 ± 1230 nM,62.5 ± 2.12 µM,–,–,14.3 ×10⁻⁶ cm/s,22.48 ± 3.90 ^c %,33.03 ± 0.46 ^b %,34.00 ± 0.01% and 34.00 ± 1.81 ^ab %,35.6 ± 12.3 µM,–,"COc1cc(OC)c2c(=O)cc(-c3ccc(OC)c(OC)c3)oc2c1 [57-TMF, 3′,4′,5,7-tetramethoxyflavone]",–,–
108000 ± 6310 nM,1.49 ± 0.16 µM,1.85 ± 0.14 µM,–,8.83 ×10⁻⁶ cm/s,30.49 ± 0.05 ^c** %,33.98 ± 0.75 ^b %,37.58 ± 0.11% and 37.58 ± 2.11 ^a %,0.79 ± 0.12 µM,790 to 1850 nM,"COc1ccc(-c2cc(=O)c3ccc(OC)c(OC)c3o2)cc1OC [78-TMF, 3′,4′,7,8-tetramethoxyflavone]",–,–

Compound,IC50 (CYP3A4),IC50 (CYP2C9),IC50 (CYP2C19),IC50 (CYP2D6),"Papp at 4 h, 300 μg/mL [1]",Transport Efficiency (%) (Caco-2 cell monolayer; 1 h),Transport Efficiency (%) (Caco-2 cell monolayer; 2 h),Transport Efficiency (%) (Caco-2 cell monolayer; 4 h),IC50 (CYP1A2),IC50 at 25 min [4],IC50 [2],IC50 [3]
"COc1ccc2oc(-c3cc(OC)c(OC)cc3OC)c(O)c(=O)c2c1 [3H6-TMF, 3-hydroxy-2′,4′,5′,6-tetramethoxyflavone]",440 ± 120 nM,8.03 ± 3.75 µM,10.2 ± 2.47 µM,95.5 ± 3.21 µM,17.4 ×10⁻⁶ cm/s,25.42 ± 1.92 ^c %,33.27 ± 2.59 ^b %,39.43 ± 2.50% and 39% and 39.43 ± 3.50 ^a %,20.6 ± 0.98 µM,–,–,–
